“Also recorded” adds a separate entry of the source.
Columns and labels:
Assay type in all cases: cell-based
MDCK-PSMA cells [1] = assay: Domain specific internalization assay of J591; settings: MDCK-PSMA monolayers, 2 μM drug 3 hours; for J591 uptake from the apical surface after drug treatment: then 5 μg/ml J591 30 minutes in apical chamber, FIG. 6F-H; for J591 internalization from the basolateral surface after drug treatment: then 5 μg/ml J591 30 minutes in basolateral chamber, FIG. 6J-L
Procedure: MDCK-PSMA cells were grown on […] pore size polycarbonate transwell filters (Corning, Corning, N.Y.) and grown to confluence as measured by transepithelial electrical resistance (TER) using an EVOM Epithelial Voltometer (World Precision Instruments, Sarasota, Fla.). Values were normalized for the area of the filter after subtracting the background resistance of a filter without cells. TER of 220-250Ω·cm^2 is indicative of the presence of functional tight junctions (24). Cells were treated with 2 μM of vinblastine, vincristine, or vinorelbine at 37° C. for 3 hours and subsequently incubated at 37° C. for 30 minutes in the presence of the indicated drug and 5 μg/ml of J591 added to either the apical or basolateral chamber. Cells were rinsed in PBS-CM, fixed, and subject to immunofluorescence analysis with FITC-conjugated secondary antibody. Single channel digital microscopic images were collected with an Olympus AX70 upright microscope using identical exposure parameters and analyzed with SPOT imaging software, version 4.0.4 (Diagnostic Instruments, Inc., Sterling Heights, Mich.).

microtubule cytoskeleton = assay: Immunofluorescence analysis of alpha-tubulin (microtubule integrity); settings: MDCK-PSMA cells, 2 μM drug, 3 hours; FIG. 6B-D
Procedure: (§1) MDCK cells (clone II) were obtained from the ATCC (Manassas, Va.) and cultured in DMEM (Gibco BRL, Rockville, Md.) supplemented with 10% FBS, 2 mM L-glutamine, 25 units/ml penicillin, 25 μg/ml streptomycin, and 100 μM non-essential amino acids. Cells were grown at 37° C. in a humidified incubator with 5% CO2. Cells were treated for 10 hours with 10 mM sodium butyrate to enhance PSMA expression. For experiments involving inhibition of N-glycosylation or microtubule depolymerization, cells were treated for 3 hours with 5 μg/ml tunicamycin (Sigma, St. Louis, Mo.) or 4 μg/ml nocodazole (Sigma), or 2 μM vinblastine, vincristine, or vinorelbine (Sigma) in DMEM at 37° C. prior to the indicated experiment, unless otherwise noted.
Tissue sections and MDCK cells were fixed in cold methanol at −20° C. for 30 minutes. Following fixation, specimens were placed in humidified chambers, washed with phosphate buffered saline containing 0.1 mM CaCl2 and 1 mM MgCl2 and 0.5% bovine serum albumin (PBS-CM-BSA), incubated 1 hour with primary antibody, washed with PBS-CM-BSA, incubated 30 minutes in secondary antibody, washed with PBS-CM-BSA, rinsed with distilled water, and mounted in Vectashield (Vector, Burlingame, Calif.).

PSMA [2] = assay: Selective cell surface biotinylation assay of PSMA at apical or basolateral plasma membrane
Procedure: as §1
(§2) MDCK cells were grown to confluence on transwell filters, as determined by TER, and biotinylation of the apical or basolateral surface was performed as described (25). […]
Samples were separated on 10% SDS polyacrylamide gels and transferred to nitrocellulose. […] After washing three times in PBST and once in PBS, bound antibody was detected by peroxidase-catalyzed ECL-Plus (Amersham, Buckinghamshire, UK). Densitometric analysis and quantification of bands was performed using ImageQuant software (Molecular Dynamics, Sunnyvale, Calif.). […]

MDCK-PSMA cells [3] = assay: Post-Golgi analysis assay: co-localization of PSMA and Na,K-β-GFP vesicles after 20° C. block; settings: data not shown
Procedure: MDCK-PSMA cells transiently transfected to express Na,K-β-GFP were grown on glass coverslips and treated with nocodazole or tunicamycin. Cells were incubated for 6 hours at 20° C. to accumulate newly synthesized protein in the Golgi and TGN, subsequently transferred to 37° C. for 30 minutes, and subject to immunofluorescence analysis as described above. Laser scanning confocal microscopy was performed using a Zeiss Axiovert 200 inverted microscope (Carl Zeiss, Inc, Thornwood, N.Y.). Samples were excited with Argon and Helium/Neon lasers and single channel images were generated and analyzed using the Zeiss LSM 510 Meta imaging system (Carl Zeiss, Inc.) by recording light emitted between 505 and 543 nm for GFP and above 560 nm for CY3.

PSMA [4] = assay: Antibody internalization trafficking assay (pulse-chase with mAb J591 in apical or basolateral chamber); settings: MDCK-PSMA cells pulsed and chased in the presence of nocodazole (three hours); FIG. 5C
Procedure: as §1
Confluent monolayers of MDCK-PSMA cells on transwell filters were rinsed twice and incubated for 30 minutes in starving media [cystine/methionine free DMEM (CellGro, Herndon, Va.)] supplemented with 0.2% BSA. […]
For the antibody internalization trafficking assay, MDCK cells were metabolically labeled and chased in DMEM containing 5 μg/ml of mAb J591 added to either the apical or basolateral chamber. […] The relative amount of PSMA for each was calculated as a percentage of the total amount of labeled PSMA precipitated throughout the course of the experiment, as quantified by densitometry.

Na,K-ATPase = assay: Cell surface biotinylation / immunoblot of basolateral marker Na,K-ATPase; settings: MDCK-PSMA cells treated with nocodazole; FIG. 5B
Procedure: as §1, §2
Samples were separated on 10% SDS polyacrylamide gels and transferred to nitrocellulose. […] After washing three times in PBST and once in PBS, bound antibody was detected by peroxidase-catalyzed ECL-Plus (Amersham, Buckinghamshire, UK). Densitometric analysis and quantification of bands was performed using ImageQuant software (Molecular Dynamics, Sunnyvale, Calif.).

PSMA [5] = assay: Surface immunofluorescence of PSMA; settings: MDCK-PSMA cells treated with nocodazole; data not shown
Procedure: as §1
For cell surface staining, MDCK cells were grown on transwell filters and the transepithelial electrical resistance (TER) was determined using an EVOM Epithelial Voltohmeter (World Precision Instruments, Sarasota, Fla.). […]
Confocal microscopy was performed using a Fluoview laser scanning confocal microscope (Olympus America, Melville, N.Y.) as described (25). To detect FITC and propidium iodide, samples were excited with krypton and argon lasers and light emitted between 525 and 540 nm was recorded for FITC and above 630 nm for propidium iodide. Images were generated and analyzed using the Fluoview image analysis software, version 2.1.39 (Olympus America).

CC[C@]1(O)C[C@@H]2CN(CCc3c([nH]c4ccccc34)[C@@](C(=O)OC)(c3cc4c(cc3OC)N(C)[C@H]3[C@@](O)(C(=O)OC)[C@H](OC(C)=O)[C@]5(CC)C=CCN6CC[C@]43[C@@H]65)C2)C1 [vinblastine]
J591 uptake from the apical surface after drug treatment (MDCK-PSMA cells [1]): also taken up from the apical surface
J591 internalization from the basolateral surface after drug treatment (MDCK-PSMA cells [1]): dramatic increase
depolymerization of the microtubule cytoskeleton (microtubule cytoskeleton): Extensive microtubule depolymerization

CCC1=C[C@@H]2CN(C1)Cc1c([nH]c3ccccc13)[C@@](C(=O)OC)(c1cc3c(cc1OC)N(C)[C@H]1[C@@](O)(C(=O)OC)[C@H](OC(C)=O)[C@]4(CC)C=CCN5CC[C@]31[C@@H]54)C2 [vinorelbine]
J591 uptake from the apical surface after drug treatment (MDCK-PSMA cells [1]): also taken up from the apical surface
J591 internalization from the basolateral surface after drug treatment (MDCK-PSMA cells [1]): dramatic increase
depolymerization of the microtubule cytoskeleton (microtubule cytoskeleton): Extensive microtubule depolymerization

CC[C@]1(O)C[C@H]2CN(CCc3c([nH]c4ccccc34)[C@@](C(=O)OC)(c3cc4c(cc3OC)N(C=O)[C@H]3[C@@](O)(C(=O)OC)[C@H](OC(C)=O)[C@]5(CC)C=CCN6CC[C@]43[C@@H]65)C2)C1 [vincristine]
J591 uptake from the apical surface after drug treatment (MDCK-PSMA cells [1]): also taken up from the apical surface
J591 internalization from the basolateral surface after drug treatment (MDCK-PSMA cells [1]): dramatic increase
depolymerization of the microtubule cytoskeleton (microtubule cytoskeleton): Extensive microtubule depolymerization

tunicamycin
distribution of surface PSMA between apical and basolateral plasma membrane (PSMA [2]; MDCK-PSMA cells metabolically labeled in the presence of tunicamycin (10 μg/ml, 4 hours), FIG. 4): equivalent levels at both plasma membrane surfaces
level of co-localization of post-Golgi vesicles containing PSMA and Na,K-ATPase (MDCK-PSMA cells [3]; MDCK-PSMA cells incubated with tunicamycin, 20° C. block then 37° C., 38/88 vesicles): approximately 43%

COC(=O)Nc1nc2cc(C(=O)c3cccs3)ccc2[nH]1 [nocodazole, methyl[5-(2-thienyl-carbonyl)-1H-benzimidazol-2-yl]-carbamate]
distribution of surface PSMA between apical and basolateral plasma membrane (PSMA [2]; MDCK-PSMA cells treated with nocodazole (4 μg/ml, 3 hours), FIG. 5A): homogeneous distribution
radiolabeled PSMA precipitated with J591 in apical versus basolateral chamber (polarized delivery of PSMA) (PSMA [4]): equivalent levels; also recorded: abolished
co-localization of PSMA and Na,K-β-GFP in post-Golgi vesicles (MDCK-PSMA cells [3]; in the presence of nocodazole, after release from 20° C. block): did not show an increased co-localization
polarity of the basolateral marker Na,K-ATPase (Na,K-ATPase): unaffected
PSMA expression at the basolateral plasma membrane relative to untreated cells (PSMA [5]): increased PSMA expression at the basolateral plasma membrane

— patent US20070237712A1, “Methods of Redistributing Apical Target Antigens to Detect and Treat Cellular Proliferative Disease” (priority 2004, published 2007)
